Series [1] can be described thus: Clinical Example 1: treatment of cachexia patient with 4,6-O-benzylidene-D-glucose. In kind it is in vivo, human. Conditions: 1,200 mg i.v. once a day; for body weight: before: 29 kg. The source says:
Patient
Diagnosis: Cancer in right ovary, Cachexia caused by metastasis of cancer to peritoneum and liver
Although the adbomen of the patient was opened by an abdominal operation, it was impossible to remove the diseased portions and thus the abdomen was closed without extracting the affected portions. The patient could eat very little and thus was supplied with nutritive substances by instillations every day. The body weight of the patient decreased to 29 kg, and they were confined to bed.

A short description of series [2]: finding of effectiveness in retarding and reducing cachexia. The format is in vivo. The following applies: benzaldehyde and/or 4,6-O-benzylidene-D-glucose.
The conditions of series [3]: Japanese Patent Laid-Open 108027/1977 and 70428/1979; cited from earlier work.
Series [4] in a line: in vivo. Conditions: rat, sc.
For series [5], the system named is rats. Briefly: acute toxicity (LD50) by subcutaneous injection of rats. The following applies: acute toxicity, rats, subcutaneous injection.
For series [6] the following is noted: human, in vivo.
Source text: (§1) Chemotherapy was tried to administering mitomycin, 5-fluorouracil and cytarabine. […] For these reasons, chemotherapy was stopped after three weeks.
Series [7] in a line: prior chemotherapy of the patient of Clinical Example 1, adverse reactions. The following applies: chemotherapy with mitomycin, 5-fluorouracil and cytarabine together, stopped after three weeks.
Source text: as §1
Series [8] in a line: Clinical Example 3: treatment of cachexia patient with benzaldehyde. In kind it is in vivo, human. The following applies: for Precipitation of Blood: before dosage 78; for Glutamic Acid Pyruvic Acid Transaminase (GPT): before dosage 98; for Glutamic Acid Oxaloacetic Acid Transaminase (GOT): before dosage 120; for α-fetoprotein (AFP): before dosage 20,000. From the text:
Patient
Diagnosis: Symptoms of cachexia due to lung cancer (the type of cancerous tissue not being specified)
Through CT scan and echo examinations, a total of four tumors were observed, one having the dimensions of 7 cm×7 cm and each of the other three metastasized tumors having a diameter of about 1 cm. Severe symptoms due to cachexia were found.
First Day: The symptoms due to cachexia were growing worse.

Series [9] can be described thus: acute toxicity (LD50) by subcutaneous injection of rats. The following applies: rat, in vivo, sc.
The mark [10] stands for this setting: 25 mg tablets, 5 tablets 4 times a day, three months.

Like-named read-outs stand apart in the source and are kept apart here.

Usually LD50 stands for the dose at which mortality reaches 50%. As for `OC1O[C@@H]2COC(c3ccccc3)O[C@H]2[C@H](O)[C@H]1O` (stereo partly drawn) [4,6-O-Benzylidene-D-glucose, 4,6-O-benzylidene-D-glucose], the nausea result in [1] (eighth day) is listed as “Nausea disappeared”. Also, the food intake result in [1] (eighth day, before: could eat very little) was “the patient could take meals”. Besides, in [1] (eighty-fifth day), the body weight is listed as 35 kg. Moreover, in series [1] (fifty-sixth day), the “cancer in other portions” value is “No change was observed”, the “cancer of the liver (left)” value is on record as “slightly reduced”, the capability of work entry was “capable of doing light work” and the symptoms of cachexia result was “disappeared completely”. In series [1] (fifty-sixth day), the body weight is 31 kg. In addition, in series [1] (nineteenth day, before: confined to bed), the mobility result is reported as “The patient could sit up in bed”. Moreover, in [1] (thirtieth day), the cachexia symptoms result is given as “cachexia symptoms were alleviated” and the mobility result is on record as “the patient could walk”. The “dimensions of the tumor” value in series [1] (thirtieth day, CT scan) was “the dimensions of the tumor had not been reduced”. Moreover, the effect on cachexia entry in [2] was “effective in retarding and reducing cachexia”. The carcinostatic function entry in series [3] is recorded as “exhibit carcinostatic functions”. The molecule also gave an LD50 in series [4] of 4000 mg/kg. Besides, in series [5], the “toxicity” value is “extremely low toxicities”.
Regarding `O=c1[nH]cc(F)c(=O)[nH]1` [5-fluorouracil], the adverse reactions result in [6] is “intensive adverse reactions, such as anorexia, nausea and Leukopenia”. The cachexia under chemotherapy result in [7] is “the cachexia grew worse and worse”.
On to `O=Cc1ccccc1` [Benzaldehyde], for which the appetite entry in [8] (25 mg benzaldehyde tablets, 5 tablets 4 times a day, one month) is on record as “the patient recovered their appetite”. Further, the “values of AFP, GOT and GPT” value in series [8] (25 mg tablets, 5 tablets 4 times a day, monthly) is on record as “lowered favorably every month unitl they reached normal levels”. For the same molecule, the “body weight” value in series [8] (setting [10]) is “began to increase”; in series [8] (one month dosage, before dosage 46), 46 kg; in series [8] (three month dosage, before dosage 46), 47 kg; in [8] (two month dosage, before dosage 46) it was 46 kg. Besides, the “symptoms due to cachexia” value in series [8] (setting [10]) is reported as “Almost all of the symptoms due to cachexia disappeared”. Also, the “Precipitation of Blood” value in series [8] (one month dosage) worked out at 60; in series [8] (three month dosage), 40; in [8] (two month dosage), 48. The “Glutamic Acid Pyruvic Acid Transaminase (GPT)” value in series [8] (one month dosage) is 70; in [8] (three month dosage), 35; in series [8] (two month dosage), 40. The “Glutamic Acid Oxaloacetic Acid Transaminase (GOT)” value is on record as 87 in [8] (one month dosage), 38 in series [8] (three month dosage) and 72 in [8] (two month dosage). Further, the “α-fetoprotein (AFP)” value in series [8] (one month dosage) is 15,000 ng/ml; in series [8] (three month dosage) it was 2,200 ng/ml; in [8] (two month dosage), 7,700 ng/ml. Besides, the effect on cachexia result in series [2] is “effective in retarding and reducing cachexia”. For the same molecule, in [3], the carcinostatic function entry is on record as “exhibit carcinostatic functions”. In series [9], this molecule displayed a 50% lethal dose (LD50) of 5000 mg/kg. For the same molecule, the “toxicity” value in series [5] is “extremely low toxicities”.
Take `Nc1ccn([C@@H]2O[C@H](CO)[C@@H](O)[C@@H]2O)c(=O)n1` [cytarabine]: in [7], the adverse reactions entry is “intensive adverse reactions, such as anorexia, nausea and Leukopenia”; the cachexia under chemotherapy result is “the cachexia grew worse and worse”.
For the molecule `CO[C@@]12[C@H](COC(N)=O)C3=C(C(=O)C(C)=C(N)C3=O)N1C[C@@H]1N[C@@H]12` [mitomycin], in series [7], the adverse reactions entry was “intensive adverse reactions, such as anorexia, nausea and Leukopenia”; the cachexia under chemotherapy entry was “the cachexia grew worse and worse”.

Values taken from patent publication US4778785A, “Pharmaceutical composition for retarding and reducing cachexia” (Kaken Pharmaceutical Co., Ltd., priority 1985, dated 1988).
